As a reminder, the mortality is the share of the test organisms that died.

In US9549560B2, “Pesticidal compositions and related methods” (DOW AGROSCIENCES LLC, priority 2013, dated 2017) one finds mortality data, which are given here for twelve compounds.

Experiment [1] deals with Green Peach Aphid (Myzus persicae). Description: Bioassay for Green Peach Aphid (GPA) (MYZUPE), foliar spray on cabbage seedlings. It counts as in vivo. Particulars: 72 h, 200 ppm foliar spray, graded after three days, Abbott corrected % control, read-out: % Control (or Mortality) rating, GPA. As to the method: Cabbage seedlings grown in 3-inch pots, with 2-3 small (3-5 cm) true leaves, were used as test substrate. The seedlings were infested with 20-50 GPA (wingless adult and nymph stages) one day prior to chemical application. Four pots with individual seedlings were used for each treatment. Test compounds (2 mg) were dissolved in 2 mL of acetone/methanol (1:1) solvent, forming stock solutions of 1000 ppm test compound. The stock solutions were diluted 5× with 0.025% Tween 20 in H2O to obtain the solution at 200 ppm test compound. A hand-held aspirator-type sprayer was used for spraying a solution to both sides of […] leaves until runoff. Reference plants (solvent check) were sprayed with the diluent only containing 20% by volume of acetone/methanol (1:1) solvent. Treated plants were held in a holding room for three days at approximately 25° C. and ambient relative humidity (RH) prior to grading. Evaluation was conducted by counting the number of live aphids per plant under a microscope. Percent control was measured by using Abbott's correction formula (W. S. Abbott, “A Method of Computing the Effectiveness of an Insecticide,” J. Econ. Entomol. 18 (1925), pp. 265-267) as follows. Corrected % Control=100*(X−Y)/X
X=No. of live aphids on solvent check plants and
Y=No. of live aphids on treated plants
(§1) Biological Data for Green Peach Aphid (GPA) (MYZUPE) and Sweetpotato Whitefly-crawler (WF) (BEMITA)” (See Table Section).

The test system of experiment [2] is Sweetpotato Whitefly-Crawler (Bemisia tabaci). Description: Insecticidal test for Sweetpotato Whitefly-Crawler (WF) (BEMITA) in foliar spray assay on cotton plants. The settings on record: 216 h, 200 ppm foliar spray, graded after 9 days, Abbott corrected % control, read-out: % Control (or Mortality) rating, WF. The format is in vivo. The procedure:
Cotton plants (Gossypium hirsutum) grown in 3-inch pots, with 1 small (4-5 cm) true leaves, were used as test substrate. The plants were infested with 200-400 whitefly eggs 4-5 days prior to chemical application. Four pots with individual plants were used for each treatment. Test compounds (2 mg) were dissolved in 1 mL of acetone solvent, forming stock solutions of 2000 ppm test compound. The stock solutions were diluted 10× with 0.025% Tween 20 in H2O (diluents) to obtain the solution at 200 ppm test compound. A hand-held aspirator-type sprayer was used for spraying a solution to both sides of cotton leaves until runoff. Reference plants (solvent check) were sprayed with the diluent only containing 10% by volume of acetone solvent. Treated plants were held in a holding room for 9 days at approximately 25° C. and ambient relative humidity (RH) prior to grading. Evaluation was conducted by counting the number of live 3-4 nymph stage per plant under a microscope. Percent control was measured by using Abbott's correction formula (W. S. Abbott, “A Method of Computing the Effectiveness of an Insecticide,” J. Econ. Entomol. 18 (1925), pp. 265-267) as follows. Corrected % Control=100*(X−Y)/X
X=No. of live nymphs on solvent check plants and
Y=No. of live nymphs on treated plants.
as §1

With `CCN(C(=O)CCSCCC(F)(F)F)c1cn(-c2cc(F)c[n+]([O-])c2)nc1Cl` [Compound P36, 3-(3-Chloro-4-(N-ethyl-3-((3,3,3-trilluoropropyl)thio)propanamido)-1H-pyrazol-1-yl)-5-fluoropyridine 1-oxide], the mortality at 200 ppm in experiment [1] and in experiment [2] was 80 to 100% throughout.

As to `CCN(C(=O)CC[S+]([O-])CC1CC1(F)F)c1cn(-c2cc(F)c[n+]([O-])c2)nc1Cl` (stereo not drawn) [Compound P93, 3-(3-Chloro-4-(3-(((2,2-difluorocyclopropyl)methyl)sulfinyl)-N-ethylpropanamido)-1H-pyrazol-1-yl)-5-fluoropyridine 1-oxide], the mortality at 200 ppm in experiment [1] and in experiment [2] was 80 to 100% throughout.

Regarding `CCNc1cn(-c2ccc[n+]([O-])c2)nc1C` [CA2, 3-(4-(Ethylamino)-3-methyl-1H-pyrazol-1-yl)pyridine 1-oxide], the mortality at 200 ppm in experiment [1] was 0 to 80%; in experiment [2], 80 to 100%.

On to `C#CCN(C(=O)CC[S+]([O-])CC1CC1(F)F)c1cn(-c2ccc[n+]([O-])c2)nc1Cl` (stereo not drawn) [Compound P66, 3-(3-Chloro-4-(3-(((2,2-difluorocyclopropyl)methyl)sulfinyl)-N-(prop-2-yn-1-yl)propanamido)-1H-pyrazol-1-yl)pyridine 1-oxide], for which the mortality at 200 ppm in experiment [1] and in experiment [2] was 80 to 100% throughout.

On to `CCNc1cn(-c2cc(F)c[n+]([O-])c2)nc1Cl` [CA4, 3-(3-Chloro-4-(ethylamino)-1H-pyrazol-1-yl)-5-fluoropyridine 1-oxide], for which the mortality at 200 ppm in experiment [1] and in experiment [2] was 0 to 80% in each case.

Take `C#CCN(C(=O)CCSCC1CC1(F)F)c1cn(-c2ccc[n+]([O-])c2)nc1Cl` (stereo not drawn) [Compound P65, 3-(3-Chloro-4-(3-(((2,2-difluorocyclopropyl)methyl)thio)-N-(prop-2-yn-1-yl)propanamido)-1H-pyrazol-1-yl)pyridine 1-oxide]: the mortality at 200 ppm in experiment [1] and in experiment [2] was 80 to 100% in each case.

Take `CCN(C(=O)C(C)C[S+]([O-])CCC(F)(F)F)c1cn(-c2cc(F)c[n+]([O-])c2)nc1Cl` (stereo not drawn) [FA6, 3-(3-Chloro-4-(N-ethyl-2-methyl-3-((3,3,3-trifluoropropyl)sulfinyl)propanamido)-1H-pyrazol-1-yl)-5-fluoropyridine 1-oxide]: the mortality at 200 ppm in experiment [1] and in experiment [2] was 80 to 100% each time.

For the compound `CCN(C(=O)CC[S+]([O-])CCC(F)(F)F)c1cn(-c2ccc[n+]([O-])c2)nc1C` (stereo not drawn) [Compound P19, 3-(4-(N-Ethyl-3-((3,3,3-trilluoropropyl)sulfinyl)propanamido)-3-methyl-1H-pyrazol-1-yl)pyridine 1-oxide], the mortality at 200 ppm in experiment [1] and in experiment [2] was 80 to 100% in each case.

For `CCN(C(=O)CC[S+]([O-])CC1CC1(F)F)c1cn(-c2ccc[n+]([O-])c2)nc1C` (stereo not drawn) [Compound P75, 3-(4-(3-(((2,2-Difluorocyclopropyl)methyl)sulfinyl)-N-ethylpropan-amido)-3-methyl-1H-pyrazol-1-yl)pyridine 1-oxide], the mortality at 200 ppm in experiment [1] and in experiment [2] was 80 to 100% each time.

Take `CCN(C(=O)CCS(=O)(=O)CC1CC1(F)F)c1cn(-c2ccc[n+]([O-])c2)nc1Cl` (stereo not drawn) [Compound F11]: the mortality at 200 ppm in experiment [1] and in experiment [2] was 80 to 100% in each case.

For the compound `CCN(C(=O)CC[S+]([O-])CCC(F)(F)F)c1cn(-c2ccc[n+]([O-])c2)nc1Cl` (stereo not drawn) [Compound F1, 3-(3-chloro-4-(N-ethyl-3-((3,3,3-trifluoropropyl)sulfinyl)propanamido)-1H-pyrazol-1-yl)pyridine 1-oxide], the mortality at 200 ppm in experiment [1] and in experiment [2] was 80 to 100% throughout.

For `CCN(C(=O)C(C)CS(C)(=O)=O)c1cn(-c2ccc[n+]([O-])c2)nc1C` (stereo not drawn) [Compound F4, 3-(4-(N-ethyl-2-methyl-3-(methylsulfonyl)propanamido)-3-methyl-1H-pyrazol-1-yl)pyridine-1-oxide], the mortality at 200 ppm in experiment [1] and in experiment [2] was 80 to 100% each time.
